Literature values, collected in patent US20210176995A1, “Disinfection Composition Comprising Tartaric Acid and Lactic Acid” (Wiping Systems ApS, priority 2016, published 2021).

System: Aspergillus b., Bacillus S., Cereus and Clostridium spores
Conditions: surfaces

Question: For PHMB, which “killing of Aspergillus b., Bacillus S., Cereus and Clostridium spores” value (“killing” for short) is on record?
Answer: Its value is “can't be killed”.

Question: For `CCO` [alcohol, ethanol], which “killing” value is on record?
Answer: Its value is “can't be killed”.

Question: With `CCCCCCCCCC[N+](C)(C)CCCCCCCCCC.[Cl-]` [DDAC] as the molecule, how does the “killing” value read?
Answer: Its value is “can't be killed”.
